Test results reported in patent US20240261276A1, “NITROXOLINE FOR USE IN THE TREATMENT OF CUTANEOUS NEUROFIBROMA” (HEALX LTD, priority 2021, published 2024).

What was measured:
Tom+ NF1−/− cells [1] = experiment: Cell death assay (DAPI, cytometry) in floating sphere culture, mutant cells; type: cell-based, mouse; details: for Ratio dead cells mean / Cell death of NF1−/− cells at highest concentration: 72 h; for Ratio dead cells mean: NF1−/− cells; for Cell death of NF1−/− cells at highest concentration: 100 μM, excluded from analysis
Protocol: (§1) This study uses a Nf1-KO mouse strain(Prss56Cre/+, R26tdTom/+, NF1fl/fl) developing cutaneous neurofibromas (cNFs) that faithfully recapitulates human disease (Radomska et a., 2019). In this model, simultaneous bi-allelic loss of Nf1 and expression of Tomato fluorescent reporters were targeted into glial-stem like cells at the origin of cNFs. The assay was performed ex vivo using non-adherent cells in which Tomato expressing Nf1−/− and Nf1+/− stem-like cells from skin can be amplified, and their properties further characterized. […] In this system, Nf1−/− cells express high levels of p-ERK (as expected due to the permanent activation of the RAS pathway), proliferate much faster compared to controls and preserve the capacity to reform spheres after dissociation and re-plating.
(§2) This in vitro culture system uses Tomato (Tom)+ stem-like glial cells at the origin of cNFs that can be amplified and propagated for the long periods. Briefly, skin from young mutant (NF1−/−) and control (NF1+/−) mice was dissected, dissociated and cell suspension incubated in the non-adherent condition with the presence of two mitogens, FGF and EGF. In such conditions only stem-like cells survive, proliferate and form compact multicellular floating structures called neurospheres. Since, in addition to the Tom+ glial stem-like cells, skin contains various other types of stem cells (Tom−), the neurospheres are composed of the intermingled Tom+ and Tom− cells. While in the mutant condition, neurospheres contain Tom+, Nf1−/− and Tom−, Nf1+/+ cells, in the Nf1+/− control condition neurospheres are composed of Tom+, Nf1+/− and Tom−, Nf1+/+ cells. In this study we have analysed the drug effect in Tom+ from NF1−/− and NfF1+/− mice.
(§3) In the present study, floating sphere culture of Nf1+/−(Prss56Cre, R26Tom, Nf1flox/+) and Nf1−/− (Prss56Cre, R26Tom, Nf1flox/flox) glial cells isolated from newborn mouse skin were used. Then they are plated and treated and analysed independently. With this intent, Nf1+/− and Nf1−/− spheres were amplified until passage 3 (1 passage corresponds to 7 days of culture). At the end of PO (10 days), cells were split into 4 identical batches (clones 1-4), and were amplified to P3 (FIG. 1).
(§4) At the end of P3, spheres from each clone were dissociated and cells transferred into two 12 well plates. 6 different concentrations (100 μm, 33 μm, 10 μm, 3 μm, 1 μm and 0 μm) of drug were added and cells were incubated for 72 h. An additional 12 well plate containing cells with DMSO (vehicle used for the drug resuspension) was used as a reference for the normalization of results. After 72 h analyses was performed the on the non-fixed cells: proliferative and cell death assay.
(§5) At 72 h of culture, cells were labelled for quantification of cell death using DAPI (4′,6-diamidino-2-phenylindole). Labelled cells were analyzed by cytometry with LSR Fortessa X20 (BD Biosciences).

Tom+ NF1+/− cells [2] = experiment: Proliferative activity (CellTrace, cytometry) in floating sphere culture, control cells; type: cell-based, mouse
Protocol: This study uses a Nf1-KO mouse strain(Prss56Cre/+, R26tdTom/+, NF1fl/fl) developing cutaneous neurofibromas (cNFs) that faithfully recapitulates human disease (Radomska et a., 2019). In this model, simultaneous bi-allelic loss of Nf1 and expression of Tomato fluorescent reporters were targeted into glial-stem like cells at the origin of cNFs. The assay was performed ex vivo using non-adherent cells in which Tomato expressing Nf1−/− and Nf1+/− stem-like cells from skin can be amplified, and their properties further characterized. […]
This in vitro culture system uses Tomato (Tom)+ stem-like glial cells at the origin of cNFs that can be amplified and propagated for the long periods. […] In this study we have analysed the drug effect in Tom+ from NF1−/− and NfF1+/− mice.
In the present study, floating sphere culture of Nf1+/−(Prss56Cre, R26Tom, Nf1flox/+) and Nf1−/− (Prss56Cre, R26Tom, Nf1flox/flox) glial cells isolated from newborn mouse skin were used. Then they are plated and treated and analysed independently. […]
For the analysis of proliferative activity, a cell tracker lipophilic dye (CellTrace Proliferation Kit, Thermo Fishers) was used. […] Cells were incubated for 72 h and proliferative activity was measured by cytometry analysis using LSR Fortessa X20 (BD Biosciences). This method measures a mean fluorescence intensity (MIF) for each condition. […]

[3] = tested on: cNF tumour cells (Tom+) in the skin of Nf1-KO mice; experiment: In vivo drug testing in Nf1-KO mice with established cNFs; design: species or system mouse; details: one month
Excerpt: This study uses the same mouse model that was used for in vitro testing, the Prss56Cre/+, R26tdTom/+, NF1f/l mouse (Radomska et a., 2019). This study is a standard experimental design in the field with endpoints being terminal and not longitudinal throughout study.
Prss56Cre/+, R26tdTom/+, NF19/fl herein referred to as Nf1-KO mice develop cNFs after one year of age. However, cNF development occurs at an earlier age after skin injury induced by mice fighting, which is normal mouse behaviour. In this experiment, at least five six-week old Nf1-KO male mice were placed in a cage together, once the mice had sustained a level of skin injury via fighting they were removed from the cage and monitored. At approximately three months of age the mice that had sustained fighting injuries developed several cNFs. As a fluorescent reporter gene is turned on in cells that have Nf1 deleted, cNF development could be monitored via fluorescent imaging of the skin using an epifluorescent microscope (Leica MZ75). After 1-2 months mice that had established, mature cNFs were then enrolled into a drug treatment study. […]
Schwann cells that are Nf1-null also express the fluorescent reporter tomato (Tom+). cNFs are derived from Nf1-null SCs which are Tom+, therefore fluorescence can be used to identify tumours. […]

Tom+ NF1+/− cells [4] = experiment: Cell death assay (DAPI, cytometry) in floating sphere culture, control cells; type: cell-based, mouse; details: for Cell death of NF1+/− cells at highest concentration: 100 μM, excluded from analysis
Protocol: as §1, §2, §3, §4, §5

Tom+ NF1−/− cells [5] = experiment: Proliferative activity (CellTrace, cytometry) in floating sphere culture, mutant cells; type: cell-based, mouse; details: for Ratio MIFmean (proliferation): NF1−/− cells, normalised to DMSO
Protocol: as §1, §2, §3, §4
For the analysis of proliferative activity, a cell tracker lipophilic dye (CellTrace Proliferation Kit, Thermo Fishers) was used. The cell tacker was added at the same time as the drugs. Cells were incubated for 72 h and proliferative activity was measured by cytometry analysis using LSR Fortessa X20 (BD Biosciences). This method measures a mean fluorescence intensity (MIF) for each condition. The condition with DMSO was used as a reference.

[6] = incubation with Selumetinib, concentration not given

## O=[N+]([O-])c1ccc(O)c2ncccc12 [Nitroxoline, 5-nitroquinolin-8-ol]
Tom+ NF1−/− cells [1]; 10 μM
  Ratio dead cells mean: 2,04+/−0,63
Tom+ NF1−/− cells [1]; 33 μM
  Ratio dead cells mean: 8,86+/−0,66
Tom+ NF1−/− cells [1]
  Cell death of NF1−/− cells at highest concentration: massive cell death
Tom+ NF1−/− cells [1]; listed as nitroxoline
  Cell death of NF1−/− cells at highest concentration: massive nonspecific death
Tom+ NF1+/− cells [2]; 33 μM to 1 μM, 72 h
  Effect on proliferation of NF1+/− cells: not affected
[3]; 120 mg/kg once daily
  Overall abundance of cNF tumour cells in the skin: reduces the overall abundance of cNF tumour cells
[3]; 120 mg/kg oral gavage once a day (5 days on, 2 days off)
  Tumour size versus vehicle treated mice (fluorescent imaging of Tom+ cells): smaller
Tom+ NF1+/− cells [4]; 33 μM, 72 h
  Effect on cell death of NF1+/− cells: without affecting NF1+/− cells
Tom+ NF1+/− cells [4]; 72 h
  Cell death of NF1+/− cells at highest concentration: massive cell death
Tom+ NF1+/− cells [4]; 72 h, listed as nitroxoline
  Cell death of NF1+/− cells at highest concentration: massive nonspecific death
Tom+ NF1+/− cells [4]; lower concentrations (10 μM and below), 72 h
  Effect on cell death of NF1+/− cells (control conditions): without affecting control conditions
Tom+ NF1−/− cells [5]; 1 μM, 72 h
  Ratio MIFmean (proliferation): 0,7+/−0,26
Tom+ NF1−/− cells [5]; 3 μM, 72 h
  Ratio MIFmean (proliferation): 0,60+/−0,22
Tom+ NF1−/− cells [5]; 10 μM, 72 h
  Ratio MIFmean (proliferation): 0,5+/−0,18
Tom+ NF1−/− cells [5]; 33 μM to 1 μM, 72 h, except clone 3
  Effect on proliferative activity of NF1−/− cells: reduced proliferative activity
Tom+ NF1−/− cells [5]; 33 μM, 72 h
  Ratio MIFmean (proliferation): 0,39+/−0,11

## Cn1cnc2c(F)c(Nc3ccc(Br)cc3Cl)c(C(=O)NOCCO)cc21 [Selumetinib, 6-(4-bromo-2-chloroanilino)-7-fluoro-N-(2-hydroxyethoxy)-3-methylbenzimidazole-5-carboxamide]
Tom+ NF1−/− cells [1]; [6]
  Effect on death of Nf1−/− (mutant) cells: promotes death of mutant
Tom+ NF1+/− cells [2]; [6]
  Effect on proliferative activity of Nf1+/− cells: without affecting Nf1+/− cells
Tom+ NF1+/− cells [4]; [6]
  Effect on death of Nf1+/− cells: without affecting Nf1+/− cells
Tom+ NF1−/− cells [5]; [6]
  Effect on proliferative activity of Nf1−/− (mutant) cells: decreases proliferative activity
